Results reported in BigSolDB 2.1.

N[C@@H](Cc1ccc([N+](=O)[O-])cc1[N+](=O)[O-])C(=O)O
solubility (mole fraction)
Conditions | in 1,2-dichloroethane | in acetone | in ethanol | in ethyl acetate | in isopropanol | in methanol | in n-butanol | in n-propanol | in sec-butanol | in water
273.15 K | 2.2e-09 | 1.58e-06 | 3.44e-05 | – | 1.51e-06 | 1.5e-05 | 3.84e-06 | 2.58e-06 | 6.49e-07 | 8.5e-08
278.15 K | – | 1.64e-06 | – | – | 2.96e-06 | 4.12e-05 | – | – | – | –
283.15 K | 8.6e-09 | 1.72e-06 | 9.2e-05 | – | 5.45e-06 | 9.1e-05 | 3.91e-06 | 3.54e-06 | 6.79e-07 | 1.12e-06
288.15 K | – | 1.91e-06 | – | – | 9.49e-06 | 0.000192 | – | – | – | –
293.15 K | 3.08e-08 | 2.15e-06 | 0.000195 | – | 1.56e-05 | 0.000365 | 3.99e-06 | 5.64e-06 | 6.92e-07 | 9.26e-06
298.15 K | – | 2.56e-06 | – | – | 2.42e-05 | 0.000578 | – | – | – | –
303.15 K | 1.05e-07 | 3.06e-06 | 0.00035 | 9.1e-09 | 3.57e-05 | 0.000909 | 4.28e-06 | 1.01e-05 | 7.79e-07 | 5.12e-05
308.15 K | – | 3.99e-06 | – | – | 5.03e-05 | 0.00123 | – | – | – | –
313.15 K | 3.27e-07 | 5.26e-06 | 0.00051 | 1.88e-07 | 6.78e-05 | 0.00155 | 5.01e-06 | 2.04e-05 | 9.45e-07 | 0.000189
318.15 K | – | 7.14e-06 | – | – | 8.75e-05 | 0.00181 | – | – | – | –
323.15 K | 9.77e-07 | 1.01e-05 | 0.000671 | 1.88e-06 | 0.000109 | 0.00196 | 6.29e-06 | 4.55e-05 | 1.23e-06 | 0.000523
328.15 K | – | 1.45e-05 | – | – | 0.00013 | 0.00197 | – | – | – | –
333.15 K | 2.69e-06 | 2.19e-05 | 0.000772 | 1.12e-05 | 0.00015 | 0.00198 | 8.34e-06 | 0.000113 | 1.71e-06 | 0.00107
338.15 K | – | – | – | – | 0.000167 | – | – | – | – | –
343.15 K | – | – | 0.00079 | 3.58e-05 | – | – | 1.15e-05 | 0.000294 | 2.49e-06 | 0.00166
348.15 K | – | – | – | 5.44e-05 | – | – | – | – | – | –
353.15 K | – | – | 0.000791 | – | – | – | 1.69e-05 | 0.000812 | 3.87e-06 | 0.00193
363.15 K | – | – | – | – | – | – | 2.6e-05 | 0.00241 | 6.11e-06 | 0.00198
368.15 K | – | – | – | – | – | – | – | 0.00424 | – | 0.00201
